Laboratory results: patent US7642283B2, “Mitochrondrial permeability transition pore affinity labels and modulators” (Hoffmann-La Roche Inc., priority 2003, dated 2010)
Read-outs that look alike come from different tables or passages of the source.

Experiments:
[1] = target: T1, VDAC1 (Rattus norvegicus, UniProt Q9Z2L0); test: Affinity labeling of rat mitochondria with the tritiated spiro compound, SDS-PAGE and fluorography; assay type: binding; settings: rat brain mitochondria; 10 nM radiolabel
T1 construct: from tissue; host or cells: Percoll-purified rat brain and liver mitochondria
T1 sequence (Q9Z2L0 whole entry): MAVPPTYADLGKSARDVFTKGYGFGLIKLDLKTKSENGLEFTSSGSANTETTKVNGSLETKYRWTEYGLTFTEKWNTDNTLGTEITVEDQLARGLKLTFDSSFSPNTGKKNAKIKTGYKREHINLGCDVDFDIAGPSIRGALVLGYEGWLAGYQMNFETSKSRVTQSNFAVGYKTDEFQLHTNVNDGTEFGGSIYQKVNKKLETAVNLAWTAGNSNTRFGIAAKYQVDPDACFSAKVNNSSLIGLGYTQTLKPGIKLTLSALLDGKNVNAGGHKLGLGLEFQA
Procedure: FIG. 6: Affinity-labeling of isolated rat brain (A) and liver (B) mitochondria. Mitochondrial preparations were incubated in the presence of 10 nM Spiro[cyclopentane-1,5′-[5H]dibenzo[a,d]cyclohepten]-2-one,10′,11′-t2-10′,11′-dihydro-3-methylene- for 15 min at 25° C. in presence or absence of various concentrations of Spiro[cyclopentane-1,5′-[5H]dibenzo[a,d]cyclohepten]-2-one,10′,11′-dihydro-3-methylene-(unlabeled). Samples were submitted to SDS-PAGE (see Experimental Procedures section for details) and fluorography. The fluorograms of the gels are shown. The molecular mass scale (kDa) is shown in the ordinate.
(§1) FIG. 8: (A) Effect of monobromobimano (MBBM) and phenylarsino oxide (PhAO) on VDAC1 labeling by Spiro[cyclopentane-1,5′-[5H]dibenzo[a,d]cyclohepten]-2-one,10′,11′-t2-10′,11′-dihydro-3-methylene- in rat brain mitochondria. Experimental conditions were as in the legend to FIG. 5. (B) Effect of various MPTP inhibitors, atractyloside (ATR) and DIDS on VDAC1 labeling by Spiro[cyclopentane-1,5′-[5H]dibenzo[a,d]cyclohepten]-2-one,10′,11′-t2-10′,11′-dihydro-3-methylene- in rat brain mitochondria. Mitochondria were exposed to DIDS for 5 min before rinsing for removal of the free agent and labeling with Spiro[cyclopentane-1,5′-[5H]dibenzo[a,d]cyclohepten]-2-one,10′,11′-t2-10′,11′-dihydro-3-methylene.
Percoll purified mitochondria (˜30 μg protein per sample) were incubated in the presence of 10 nM Spiro[cyclopentane-1,5′-[5H]dibenzo[a,d]cyclohepten]-2-one,10′,11′-t2-10′,11′-dihydro-3-methylene- in a final volume of 200 μl. After incubation for 15 min at 25° C., samples were centrifuged at 25000×g and the mitochondrial pellet rinsed twice with buffer. Samples were then solubilized in sample buffer containing β-mercaptoethanol (1 h at 37° C.) and subjected to SDS-polyacrylamide gel-electrophoresis (SDS-PAGE) on Tris-glycine Novex pre-cast mini-gels (12% monomer concentration, Invitrogen BV, The Netherlands). After Coomassie Blue staining, gels were processed for fluorography by soaking in Amplify™ (Amersham Biosciences), drying and exposing to X-ray BioMax MS film with BioMax MS intensifying screen (Kodak) at −80° C. for the appropriate time.
as §1, with “Effect” for “FIG. 8: (A) Effect”, “monobromobimano” for “monobromobimano (MBBM)”, “oxide” for “oxide (PhAO)”, “Example 12 (FIG. 8A).” for “the legend to FIG. 5. (B)”, “Spiro[cyclopentane-1,5′-[5H]dibenzo[a,d]cyclohepten]-2-one,10′,11′-t2-10′,11′-dihydro-3-methylene (FIG. 8B).” for “Spiro[cyclopentane-1,5′-[5H]dibenzo[a,d]cyclohepten]-2-one,10′,11′-t2-10′,11′-dihydro-3-methylene.”

[2] = system: mitochondrial respiration; test: Mitochondrial respiration (oxygen consumption); assay type: biochemical; settings: at concentrations completely blocking MPTP
Procedure: Isolated liver mitochondria (˜0.5 mg protein ml^−1) were incubated in a batch mode in the presence of 20 nM [^3H]TPP ([^3H]Tetraphenylphosphonium ([^3H]TPP, 24-29 Ci/mmol) from Amersham Biosciences, Switzerland) for 15 min at 25° C. Aliquots (100 μl) of the mixture were then distributed into 96-well plates containing 100 μl of the test compound and the incubation prolonged for 15 min at 25° C. Samples were then filtered through 0.3% (v/v) polyethyleneimmine-treated GF/B glass fiber filters using a 96-channel cell harvester and the filters washed twice with 1 ml of buffer. Fifty μl of MICROSCINT 40 (Packard) were then added to each well, before counting for radioactivity in a TopCount scintillation counter (Packard). Non-specific uptake was determined in the presence of 1 mM unlabeled TPP or 1 μM carbonylcianide-p-trifluoromethoxyphenyl hydrazone (FCCP). Mitochondrial oxygen consumption was measured polarographically at 25° C. using a Clark-type electrode.
Compounds found to inhibit MPTP where then counter-screened using uptake of the potentiometric probe [^3H]-TPP (Hoek, J. B., Nicholls, D. G. & Williamson, J. R. (1980) J. Biol. Chem. 255, 1458-1564) for determining in a semi-quantitative, but rapid way whether they interfered with mitochondrial respiration (e.g. protonophores). […]

[3] = target: Cyp-D (Homo sapiens, UniProt P30405); test: Cyp-D peptidyl prolyl cis-trans isomerase enzymatic activity; assay type: biochemical; settings: at concentrations completely blocking MPTP
Cyp-D, sequence (P30405 30-207): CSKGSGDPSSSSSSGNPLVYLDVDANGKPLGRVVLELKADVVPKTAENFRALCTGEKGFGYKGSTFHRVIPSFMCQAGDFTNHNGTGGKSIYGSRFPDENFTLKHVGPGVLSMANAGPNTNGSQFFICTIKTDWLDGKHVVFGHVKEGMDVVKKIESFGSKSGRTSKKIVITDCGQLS

[4] = system: T2, MPTP; test: Ca2+-induced swelling in deenergized liver mitochondria; assay type: biochemical; settings: n=2; 30 min after addition of 200 μM Ca2+; read-out: EC50 of MPTP inhibition in deenergized mitochondria
T2 construct: other: n=2; 30 min after addition of 200 μM Ca2+

[5] = target: T3, MPTP (Rattus norvegicus, UniProt Q9Z2L0); test: Ca2+-retention capacity of rat brain mitochondria (Calcium Green-5N); assay type: biochemical
T3 construct: other: n=2; glutamate/malate; other: glutamate/malate; 20 min; mean±SEM; unit not given; other: 300 nM; relieved by 50 μM Ub5
T3 sequence (Q9Z2L0 2-283): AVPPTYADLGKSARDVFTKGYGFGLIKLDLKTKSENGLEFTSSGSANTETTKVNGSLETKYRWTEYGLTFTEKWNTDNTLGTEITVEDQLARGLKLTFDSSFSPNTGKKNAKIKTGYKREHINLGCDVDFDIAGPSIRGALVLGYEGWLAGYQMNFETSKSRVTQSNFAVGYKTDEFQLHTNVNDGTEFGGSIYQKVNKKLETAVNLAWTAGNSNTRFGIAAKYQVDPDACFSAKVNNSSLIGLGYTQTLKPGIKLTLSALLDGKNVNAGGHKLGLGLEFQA
Procedure: FIG. 4: (A) Effect of Spiro[cyclopentane-1,5′-[5H]dibenzo[a,d]cyclohepten]-2-one,10′,11′-dihydro-3-methylene- and CsA on Ca^2+-retention capacity of rat brain mitochondria. The incubation medium contained 0.2 M sucrose, 10 mM Tris-Mops, pH 7.4, 1 mM Pi-Tris, 5 μM EGTA and 5 mM glutamate/2.5 mM malate, buffered to pH 7.4 with Tris, containing 0.01% (w/v) bovine serum albumin and 1 μM Calcium Green-5N. The final volume was 2.5 ml. Trace (a) control, (b) 1 μM CsA, (c) 1 μM Spiro[cyclopentane-1,5′-[5H]dibenzo[a,d]cyclohepten]-2-one,10′,11′-dihydro-3-methylene- and (d) 1 μM CsA plus 1 μM Spiro[cyclopentane-1,5′-[5H]dibenzo[a,d]cyclohepten]-2-one,10′,11′-dihydro-3-methylene-. Each fluorescence spike corresponds to addition of 5 μM Ca^2+. (B) Comparison of Ca^2+-retention capacity in liver (a) and brain mitochondria (b).
Effect of Spiro[cyclopentane-1,5′-[5H]dibenzo[a,d]cyclohepten]-2-one,10′,11′-dihydro-3-methylene- and CsA on Ca^2+-retention capacity of rat brain mitochondria (FIG. 4). Measurement of extramitochondrial Ca^2+ was determined using a Perkin-Elmer LS-50B fluorimeter controlled by the FL WinLab computer program. […] The final volume was 2.5 ml and the cuvette was thermostated at 25° C. Brain mitochondria were then subjected to a train of 5 μM Ca^2+ additions (˜150 nmol mg protein^−1). Extramitochondrial Ca^2+ was monitored at excitation/emission wavelengths of 505-535. […] The Ca^2+-retention capacity in liver (a) and brain mitochondria (b) were also compared (FIG. 4B).
The effect of Spiro[cyclopentane-1,5′-[5H]dibenzo[a,d]cyclohepten]-2-one,10′,11′-dihydro-3-methylene- at inhibiting MPTP was also investigated in mitochondria isolated from rat forebrain. […] Due to the difficulties mentioned above, the effect of Spiro[cyclopentane-1,5′-[5H]dibenzo[a,d]cyclohepten]-2-one,10′,11′-dihydro-3-methylene- on MPTP in brain mitochondria was more accurately investigated by subjecting mitochondria isolated from rat forebrain to a series of Ca^2+ pulses (5 μM, ˜150 nmol mg protein^−1) and by monitoring extramitochondrial Ca^2+ or using fluororescent probes.

[6] = target: T4, MPTP (Rattus norvegicus); test: Ca2+-induced swelling (MPTP) in rat liver mitochondria energised with succinate; assay type: biochemical; settings: succinate 5 mM + 2 μM rotenone; 80 μM Ca2+; ΔA540 20 min after CaCl2
T4 construct: other: n=2; glutamate/malate; other: glutamate/malate; 20 min; mean±SEM; unit not given; other: 300 nM; relieved by 50 μM Ub5
T4 sequence (Q9Z2L0 2-283): as above
Procedure: Ca^2+-induced swelling (sucrose permeability) in energized mitochondria was assayed at 25° C. in 96 well-plates by measuring changes in absorbance at 540 nm by means of a […]ax 250 spectrophometer controlled by the SOFTmax PRO™ software (Molecular Devices, Switzerland). The incubation medium contained 0.2 M sucrose, 10 mM Tris-Mops, pH 7.4, 1 mM Pi-Tris, 5 μM EGTA. Succinate (5 mM, in the presence of 2 μM rotenone) or 5 mM glutamate/2.5 mM malate, buffered to pH 7.4 with Tris, were used as respiratory substrates. After a short (˜5 min) preincubation in presence or absence of test compounds, mitochondrial swelling was induced by the addition of 20 μl CaCl2 at final concentrations ranging from 40 to 80 μM, depending on respiratory substrates and Ca^2+ sensitivity of the mitochondrial preparation. The final incubation volume was 0.2 ml and the concentration of mitochondria was ˜0.5 mg mitochondrial protein ml^−1. Swelling kinetics was followed for up to 30 min at 25° C. Absorbance readings were taken every 12 sec and the plate was shaken for 3 s between readings to ensure oxygen diffusion during the experiment and to avoid sedimentation of the mitochondria.
The incubation medium contained 0.2 M sucrose, 10 mM Tris-Mops, pH 7.4, 1 mM Pi-Tris, 5 μM EGTA.

[7] = system: MPTP; test: Ca2+-induced depolarisation (membrane potential, Rhodamine-123) of rat brain mitochondria; assay type: biochemical; settings: 50 μM Ub5 alone
Procedure: (B) Ca^2+-induced depolarisation of rat brain mitochondria. The medium used was as in the legend to FIG. 4, except that 0.5 μM Rhodamine-123 was added instead of Calcium Green-5N, and MPTP was induced by addition of 20 μM Ca^2+. Trace a, control (Ca^2+ alone), b, 300 nM Spiro[cyclopentane-1,5′-[5H]dibenzo[a,d]cyclohepten]-2-one,10′,11′-dihydro-3-methylene-, c, 300 nM Spiro[cyclopentane-1,5′-[5H]dibenzo[a,d]cyclohepten]-2-one,10′,11′-dihydro-3-methylene- and 50 μM Ub5.
The effect of Spiro[cyclopentane-1,5′-[5H]dibenzo[a,d]cyclohepten]-2-one,10′,11′-dihydro-3-methylene- at inhibiting MPTP was also investigated in mitochondria isolated from rat forebrain. […] Due to the difficulties mentioned above, the effect of Spiro[cyclopentane-1,5′-[5H]dibenzo[a,d]cyclohepten]-2-one,10′,11′-dihydro-3-methylene- on MPTP in brain mitochondria was more accurately investigated by subjecting mitochondria isolated from rat forebrain to a series of Ca^2+ pulses (5 μM, ˜150 nmol mg protein^−1) and by monitoring extramitochondrial Ca^2+ or using fluororescent probes. […] Virtually identical results were obtained from experiments where Δψm was monitored after a series of Ca^2+ additions (5 μM each). Each Ca^2+ additions caused a reversible decreases in Δψm, until MPTP opening completely collapsed Δψm and no further fluorescence increase could observed after addition of the protonophore FCCP.

[8] = Ca2+ pulses, rat brain mitochondria

Structure (SMILES)	Effect on VDAC1 labeling (incorporation of radioactivity) by the tritiated spiro compound [1]	Additive effect when combined with the spiro compound (Example 2) [5, 8]	EC50 [6] [µM]	also measured
CCN(CC)CC1COc2ccc(Br)cc2C1=O (stereo not shown) [6-bromo-3-diethylaminomethyl-chroman-4-one]	inhibited			
C=C1COc2ccc(Br)cc2C1=O [6-bromo-3-methylene-chroman-4-one]	inhibited	no additive effect		Inhibition of mitochondrial respiration (basal, ADP-induced and uncoupled) [2]: did not inhibit; Inhibition of Cyp-D peptidyl prolyl cis-trans isomerase activity [3]: did not inhibit; EC50 [4]: 2.8 µM
C=C1[C@@H]2CC[C@H]3[C@]4(C)C[C@H](O[C@@H]5O[C@H](CO)[C@@H](OS(=O)(=O)O)[C@H](OS(=O)(=O)O)[C@H]5OC(=O)CC(C)C)C[C@@H](C(=O)O)[C@H]4CC[C@]3(C2)[C@H]1O [ATR, atractyloside]	did not affect			
CO[C@H](C/C=C\C=C\CC/C=C/C[C@H](C)/C=C/C(=C\C(=O)O)CC(=O)O)/C(C)=C\C=C(/C)C(=O)O [Bongkrekic acid]	did not affect	additive	11.5	
O=S(=O)(O)c1cc(N=C=S)ccc1C=Cc1ccc(N=C=S)cc1S(=O)(=O)O [DIDS, 4,4′-diisothiocyanatostilbene-2,2′-disulfonic acid]	appeared to inhibit			
CN1CCN(CCCN2c3ccccc3Sc3ccc(C(F)(F)F)cc32)CC1 [Trifluoroperazine]	did not affect		9.4	Additive effect when combined with the spiro compound (Example 2) [5]: additive
COC1=C(OC)C(=O)C(C/C=C(\C)CC/C=C(\C)CC/C=C(\C)CC/C=C(\C)CCC=C(C)C)=C(C)C1=O [Ub5, ubiquinone5, reference compound]				Effect of Ub5 alone [7]: no effect
COC1=C(OC)C(=O)C(C)=CC1=O [Ubiquinone0]	Inhibition	no such additive effect	23.2	EC50 [4]: 4.9 µM
